Measurements: patent US20260217692A1 (Ascentage Pharma (Suzhou) Co., Ltd., priority 2023, published 2026)
Where a name gives a salt, the structure may show the parent alone. Each block holds one compound with its values, some of them ahead of it.

How the values were obtained:
Assay type in all cases: physicochemical
[1] = Polymorph screening test, suspension method (crystal form by XRPD after stirring in solvent); conditions: for Crystal form (XRPD): free base screening, 3 days
Method: (or 50° C.) for 3 days in the dark and centrifuged to remove the supernatant; the resulting precipitate was dried under vacuum (25° C., −0.1 MPa); and the resulting solid was collected and subjected to the XRPD test. The results are as follows:
(or 50° C./80° C.) for 3 days in the dark and centrifuged to remove the supernatant; and the resulting precipitate was dried under vacuum (25° C., −0.1 MPa).
(or 50° C.) for 3 days in the dark and centrifuged to remove the supernatant; and the resulting precipitate was dried under vacuum (25° C., −0.1 MPa).

[2] = Stability of crystal forms under stability test conditions (appearance, XRPD, HPLC); conditions: for Total impurities: HPLC
Method: The samples were placed under the stability conditions shown in the following table, sampling was performed at the corresponding time points, and the samples were subjected to appearance and XRPD tests. […] The stability results obtained are recorded in the following table. […] The samples were placed under the stability test conditions shown in the following table, sampling was performed at different time points, and the samples were subjected to the XRPD test. […] The samples were placed in an open state under the stability test conditions of 40° C./75% RH and 90% RH; and the samples were placed in a closed state at 60° C. in a light box (the test samples in the dark were placed in the same manner as the illumination test samples, and the treatment was performed in the dark). Sampling was performed at different time points, and the samples were subjected to the XRPD test. […] The samples were placed under the stability conditions shown in the following table, sampling was performed at the corresponding time points, and the samples were subjected to appearance and XRPD tests. […] The stability results obtained are recorded in the following table.

[3] = Dynamic vapor sorption (DVS) hygroscopicity test; conditions: 25° C. and 80% RH
Excerpt: In the present disclosure, the DVS test parameters are set as follows: [table]

[4] = 0 d, listed as Phosphate crystal form E

SMILES: Cc1cc(Nc2ncc(Cl)c(Nc3ccccc3S(=O)(=O)C(C)C)n2)c(OC(C)C)cc1C1=CCN(C2CCOCC2)CC1 [listing 1 of 3 here]
- Crystal form (XRPD) ([1]; suspension in 1,4-Dioxane, 25° C.): Crystal form G
- Crystal form (XRPD) ([1]; suspension in 1,4-Dioxane, 50° C.): Crystal form D
- Crystal form (XRPD) ([1]; suspension in 2-MeTHF, 25° C.): Crystal form D
- Crystal form (XRPD) ([1]; suspension in 2-MeTHF, 50° C.): Crystal form D
- Crystal form (XRPD) ([1]; suspension in ACN/water (1/1, v/v), 25° C.): Crystal form D
- Crystal form (XRPD) ([1]; suspension in ACN/water (1/1, v/v), 50° C.): Crystal form D
- Crystal form (XRPD) ([1]; suspension in Acetone, 25° C.): Crystal form E
- Crystal form (XRPD) ([1]; suspension in Acetone, 50° C.): Crystal form E
- Crystal form (XRPD) ([1]; suspension in Acetone/water (1:1, v/v), 25° C.): Crystal form D
- Crystal form (XRPD) ([1]; suspension in Acetone/water (1:1, v/v), 50° C.): Crystal form D
- Crystal form (XRPD) ([1]; suspension in Acetonitrile, 25° C.): Crystal form D
- Crystal form (XRPD) ([1]; suspension in Acetonitrile, 50° C.): Crystal form D
- Crystal form (XRPD) ([1]; suspension in Cyclohexane, 25° C.): Crystal form D
- Crystal form (XRPD) ([1]; suspension in Cyclohexane, 50° C.): Crystal form D
- Crystal form (XRPD) ([1]; suspension in Dichloromethane, 25° C.): No solid sample was obtained
- Crystal form (XRPD) ([1]; suspension in Dichloromethane, 50° C.): No solid sample was obtained
- Crystal form (XRPD) ([1]; suspension in Ethanol, 25° C.): Crystal form B
- Crystal form (XRPD) ([1]; suspension in Ethanol, 50° C.): Crystal form D
- Crystal form (XRPD) ([1]; suspension in Ethyl acetate, 25° C.): Crystal form D
- Crystal form (XRPD) ([1]; suspension in Ethyl acetate, 50° C.): Crystal form D
- Crystal form (XRPD) ([1]; suspension in Isopropanol, 25° C.): Crystal form C
- Crystal form (XRPD) ([1]; suspension in Isopropanol, 50° C.): Crystal form D
- Crystal form (XRPD) ([1]; suspension in Isopropyl acetate, 25° C.): Crystal form D
- Crystal form (XRPD) ([1]; suspension in Isopropyl acetate, 50° C.): Crystal form D
- Crystal form (XRPD) ([1]; suspension in MA, 25° C.): Crystal form D
- Crystal form (XRPD) ([1]; suspension in MA, 50° C.): Crystal form D
- Crystal form (XRPD) ([1]; suspension in MEK, 25° C.): Crystal form D
- Crystal form (XRPD) ([1]; suspension in MEK, 50° C.): Crystal form D
- Crystal form (XRPD) ([1]; suspension in MIBK, 25° C.): Crystal form D
- Crystal form (XRPD) ([1]; suspension in MIBK, 50° C.): Crystal form D
- Crystal form (XRPD) ([1]; suspension in MeOH/water (1:1, v/v), 25° C.): Crystal form D
- Crystal form (XRPD) ([1]; suspension in MeOH/water (1:1, v/v), 50° C.): Crystal form D
- Crystal form (XRPD) ([1]; suspension in Methanol, 25° C.): Crystal form A
- Crystal form (XRPD) ([1]; suspension in Methanol, 50° C.): Crystal form I
- Crystal form (XRPD) ([1]; suspension in Methyl tert-butyl ether, 25° C.): Crystal form D
- Crystal form (XRPD) ([1]; suspension in Methyl tert-butyl ether, 50° C.): Crystal form C
- Crystal form (XRPD) ([1]; suspension in Tetrahydrofuran, 25° C.): Crystal form F
- Crystal form (XRPD) ([1]; suspension in Tetrahydrofuran, 50° C.): No solid sample was obtained
- Crystal form (XRPD) ([1]; suspension in Toluene, 25° C.): Crystal form D
- Crystal form (XRPD) ([1]; suspension in Toluene, 50° C.): No solid sample was obtained
- Crystal form (XRPD) ([1]; suspension in Water, 25° C.): Crystal form H
- Crystal form (XRPD) ([1]; suspension in Water, 50° C.): Crystal form J
- Crystal form (XRPD) ([1]; suspension in n-Heptane, 25° C.): Crystal forms C + D
- Crystal form (XRPD) ([1]; suspension in n-Heptane, 50° C.): Crystal forms C + D
- Crystal form (XRPD) ([1]; suspension in n-Hexane, 25° C.): Crystal form D
- Crystal form (XRPD) ([1]; suspension in n-Hexane, 50° C.): Crystal form D

SMILES: Cc1cc(Nc2ncc(Cl)c(Nc3ccccc3S(=O)(=O)C(C)C)n2)c(OC(C)C)cc1C1=CCN(C2CCOCC2)CC1 [listing 2 of 3 here]
- Total impurities [2, 4]: 1.24%
- Crystal form (XRPD) [2, 4]: Significant change
- Total impurities ([2]; 40° C./75% RH, 1 M, listed as Phosphate crystal form E): 1.69%
- Total impurities ([2]; 40° C./75% RH, 10 d, listed as Phosphate crystal form E): 1.79%
- Crystal form (XRPD) ([2]; 40° C./75% RH, 10 d and 1 M, listed as Phosphate crystal form E): Significant change
- Total impurities ([2]; 60° C., 1 M, listed as Phosphate crystal form E): 2.74%
- Total impurities ([2]; 60° C., 10 d, listed as Phosphate crystal form E): 3.26%
- Crystal form (XRPD) ([2]; 60° C., 10 d and 1 M, listed as Phosphate crystal form E): Significant change
- Total impurities ([2]; 90% RH, 1 M, listed as Phosphate crystal form E): 3.03%
- Total impurities ([2]; 90% RH, 10 d, listed as Phosphate crystal form E): 2.13%
- Crystal form (XRPD) ([2]; 90% RH, 10 d and 1 M, listed as Phosphate crystal form E): Significant change
- Total impurities ([2]; Illumination, 5 d, listed as Phosphate crystal form E): 3.02%
- Crystal form (XRPD) ([2]; Illumination, 5 d and 10 d, listed as Phosphate crystal form E): Significant change
- Total impurities ([2]; Illumination, 10 d, listed as Phosphate crystal form E): 5.00%

Results, then the compound that gave them:

- Total impurities ([2]; 0 d, listed as Tartrate crystal form C): 0.28%
- Total impurities ([2]; 40° C./75% RH, 1 M, listed as Tartrate crystal form C): 0.38%
- Total impurities ([2]; 40° C./75% RH, 10 d, listed as Tartrate crystal form C): 0.37%
- Total impurities ([2]; 60° C., 1 M, listed as Tartrate crystal form C): 0.47%
- Total impurities ([2]; 60° C., 10 d, listed as Tartrate crystal form C): 0.41%
- Total impurities ([2]; 90% RH, 1 M, listed as Tartrate crystal form C): 0.59%
- Total impurities ([2]; 90% RH, 10 d, listed as Tartrate crystal form C): 0.48%
- Total impurities ([2]; Illumination, 5 d, listed as Tartrate crystal form C): 1.01%
- Appearance ([2]; Illumination, 5 d and 10 d): Color deepening
- Total impurities ([2]; Illumination, 10 d, listed as Tartrate crystal form C): 1.04%
SMILES: Cc1cc(Nc2ncc(Cl)c(Nc3ccccc3S(=O)(=O)C(C)C)n2)c(OC(C)C)cc1C1=CCN(C2CCOCC2)CC1 [listing 3 of 3 here]

- hygroscopic weight gain (DVS curve) [3]: 0.31±0.005%
SMILES: Cc1cc(Nc2ncc(Cl)c(Nc3ccccc3S(=O)(=O)C(C)C)n2)c(OC(C)C)cc1C1=CCN(C2CCOCC2)CC1 [crystal form C]

- stability of crystal form in solvents, citrate polymorph screening test ([1]; in solvents): relatively good stability
- crystal form when stirred in solvent ([1]; methanol, ethanol, acetonitrile, acetone, ethyl acetate, dichloromethane, tetrahydrofuran, n-heptane, dioxane, or mixed solvent of methanol, acetonitrile, or acetone with water, 40° C.): remained stable
- Total impurities ([2]; 0 d): 0.18%
- Total impurities ([2]; 40° C./75% RH, 1 M): 0.19%
- Total impurities ([2]; 40° C./75% RH, 10 d): 0.19%
- Total impurities ([2]; 60° C., 1 M): 0.22%
- Total impurities ([2]; 60° C., 10 d): 0.19%
- Total impurities ([2]; 90% RH, 1 M): 0.19%
- Total impurities ([2]; 90% RH, 10 d): 0.18%
- Total impurities ([2]; Illumination, 5 d): 0.48%
- Appearance ([2]; Illumination, 5 d and 10 d): Color deepening
- Total impurities ([2]; Illumination, 10 d): 0.55%
SMILES: Cc1cc(Nc2ncc(Cl)c(Nc3ccccc3S(=O)(=O)C(C)C)n2)c(OC(C)C)cc1C1=CCN(C2CCOCC2)CC1 [one equivalent of citrate crystal form B]

- stability of crystal form in solvent, suspension method ([1]; acetone, tetrahydrofuran, n-heptane, or dioxane): relatively good stability
- crystal form when stirred in solvent ([1]; acetone, tetrahydrofuran, n-heptane, or dioxane at 40° C.): remained stable
SMILES: Cc1cc(Nc2ncc(Cl)c(Nc3ccccc3S(=O)(=O)C(C)C)n2)c(OC(C)C)cc1C1=CCN(C2CCOCC2)CC1 [one equivalent of tartrate crystal form B]
